Measurements from patent US6730326B2, “Thermodynamically stable modification of 1-(4-carbazolyl-oxy-3[2-(2-methoxyphenoxy)-ethylamino]-2-propanol process for its preparation and pharmaceutical compositions containing it” (Roche Diagnostics GmbH, priority 1997, dated 2004).

Assay type: physicochemical
Protocol: A 1:1 mixture of Form I and Form II was suspended in isopropanol and agitated with a magnetic stirrer for 18 h in a tightly sealed glass […]. […] Subsequently the sample was filtered with a micro glass filter funnel (G3), dried and evacuated.

- thermodynamic stability of the modification: thermodynamically stable form
SMILES: COc1ccccc1OCCNCC(O)COc1cccc2[nH]c3ccccc3c12 (racemic) [Form I, (±)1-(4-carbazolyloxy)-3-[2-(2-methoxyphenoxy)ethylamno]-2-propanole]
